Data published in patent US10479792B2, “Compounds” (GlaxoSmithKline Intellectual Property Development Limited, priority 2015, dated 2019).

Tests used:
THP-1 cells = assay: Intramacrophage Leishmania donovani assay (Assay 1), THP-1 cell count (cytotoxicity readout); type: cell-based; conditions: human, 96 h incubation, read-out: cytotoxicity against THP-1 cells, pEC50 (converted)
Method: Assay 1. Intramacrophage Leishmania donovani Assay
The intramacrophage Leishmania assay was performed using a modified version of the method described in De Rycker et al. (Antimicrob Agents Chemother. 2013 July; 57(7):2913-22. Comparison of a high-throughput high-content intracellular Leishmania donovani assay with an axenic amastigote assay. De Rycker M, Hallyburton I, Thomas J, Campbell L, Wyllie S, Joshi D, Cameron S, Gilbert I H, Wyatt P G, Frearson J A, Fairlamb A H, Gray D W.). Procedure: 350 nl of compound was pre-dispensed into 384 well sterile intermediary plates. For single point screening, amphotericin B was added to all wells of column 24 as a positive control (final concentration 2 μM) and DMSO to column 23. For potency determinations, ten-point, one in three dilution curves were created with the highest concentration being 50 μM and on each plate a control curve of amphotericin B was included. Controls were as follows: columns 11 and 12: DMSO, columns 23 and 24: amphotericin B (final concentration 2 μM). To the intermediary plates, 35 μl of THP-1 media was added and plates were shaken for >5 min to ensure complete mixing. […] For each well, i) THP-1 cell count (cytotoxicity readout) and ii) average number of amastigotes per cell (potency readout) were calculated, both in terms of pEC50 values.

Trypanosoma brucei = Trypanosoma brucei cell growth inhibition assay (Assay 3); type: cell-based, T. b. brucei, BSF427, VSG118; conditions: 69 h + 4 h resazurin, read-out: pEC50 value against Trypanosoma brucei (converted)
Method: Assay 3. Trypanosoma brucei Cell Growth Inhibition Assay
Measurement of the ability of the compounds to inhibit trypanosome (T. b. brucei, BSF427, VSG118) cell growth was performed using a modification of the cell viability assay previously described by Raz et al. (Raz B.; Iten M.; Grether-Buhler Y.; Kaminski R.; Brun R. The Alamar Blue assay to determine drug sensitivity of African trypanosomes (T. b. rhodesiense and T. b. gambiense) in vitro. Acta Trop. 1997, 68, 139-147). Compounds were dissolved in DMSO at a top concentration of 10 mM and serially diluted in half log steps to achieve a range of final assay concentrations of 50 μM to 0.5 nM. Compound at each concentration (200-fold final) was added to clear 96-well tissue culture plates in a volume of 1 μL. […] Plates were then read on a BioTek flx800 fluorescent plate reader, and percentage inhibition was compared to the maximum and minimum assay controls. Concentration effect curves were fitted using nonlinear regression using XLFit 4.2 and EC50 values determined.

RnH9c2 cells = assay: Trypanosoma cruzi intracellular assay (Assay 2), host cell cytotoxicity; type: cell-based; conditions: rat, H9C2 cardiomyocytes infected with Trypanosoma cruzi, 72 h incubation, read-out: cytotoxicity against RnH9c2 cells, pEC50 (converted)
Method: Compounds were dispensed into black 384-well assay plates (Greiner) by acoustic dispensing (LabCyte ECHO). For potency determinations, eleven-point, one in three dilution curves were generated, with a top concentration of 50 μM. H9C2 rat cardiomyocytes cells were dispensed in T225 tissue culture flasks and after 4 hours they were infected during 18 hours with T. cruzi trypomastigotes in the same T225 tissue culture flasks at a multiplicity of infection of 1. Next, any remaining free trypomastigotes were washed away with PBS and the infected H9C2 cells were harvested by trypsinisation. The infected H9C2 cells were then plated into 384-well plates containing the compounds to be tested, at 2500 cells per well in DMEM media with 2% FBS, 1% Penicillin/Streptomicin, 2 mM L-Glutamine, 1 mM Na Pyruvate and 25 mM HEPES. After 72 h incubation at 37° C. in presence of 5% CO2, the plates were fixed and stained with 4% formaldehyde and 2 μM Draq5 for 3 hours at room temperature. The plates were imaged on a Perkin Elmer Opera high-content imaging system using a 20× air objective. Images were analyzed using the Acapella building blocks system (Perkin Elmer). The image analysis algorithm first identified the H9C2 nuclei followed by demarcation of the cytoplasm and identification of intracellular amastigotes. This algorithm reported mean number of parasites per H9C2 cell, the percentage of infected H9C2 cells and the total number of H9C2 cells.

EC50 (Trypanosoma brucei): 0.01 µM
Structure (SMILES): O=C(Nc1ccc(F)c(-c2ccn3c(N4CCOCC4)cnc3n2)c1)N1CCCC1 [Example 4, N-(4-fluoro-3-(3-morpholinoimidazo[1,2-a]pyrimidin-7-yl)phenyl)pyrrolidine-1-carboxamide]
EC50 at 96 h (THP-1 cells): > 50.1 µM | EC50 at 72 h (RnH9c2 cells): > 50.1 µM
